Values joined by “and” are separate entries in the source; they are usually repeats but may differ in a detail not shown here. Equal entries are not always repeated.
What was measured:
[1] = test system: connective tissue growth factor (CTGF); test: Quantitative real-time PCR, CTGF; assay type: cell-based, mouse; conditions: C2C12 cells, 10 μM; for Normarized mRNA abundance, CTGF: listed as IBS008738
Method: (1) Quantitative real-time PCR was performed with C2C12 cells immediately before the induction of muscle formation (0 h), and after culturing under differentiation condition in a culture medium added with IBS008738 or DMSO at a concentration of 10 μM for 24 hours (24 h) and 72 hours (72 h), respectively. […] The line and error bar indicate the average value and the standard error, **p<0.05, and ns refers to not significant.
(2) Evaluation was also performed under the same condition on the connective tissue growth factor (CTGF) and cyclin D1, as TAZ targets in epidermal cells.
The quantitative real-time PCR was performed with SYBER Green (Roche) and ABI7500 Realtime PCR system (Applied Biosystems).

[2] = test system: binding of Pax3 to Myf5 promoter; test: Chromatin immunoprecipitation, Pax3 on Myf5 promoter; assay type: cell-based, mouse; conditions: C2C12 cells; 10 μM; differentiation condition 24 hours; protein G sepharose without antibody; listed as IBS008738
Method: (1) Chromatin immunoprecipitation of MyoD, TEAD and Pax3 was performed on C2C12 cells that were cultured under differentiation condition for 24 hours in a culture medium added with IBS008738 or DMSO at a concentration of 10 μM. Myogenin, connective tissue growth factor (CTGF) and MyfS were detected by PCR, respectively. The immunoprecipitation with protein G sepharose was used as a control (Mock ChIP). […] The line and the error bar in the figure indicate the average value and the standard error, *p<0.05, ***p<0.001, ns refers to not significant.
The Chromatin immunoprecipitation was performed according to the following process. C2C12 cells were cultured to confluence, and then treated with IBS008738 or DMSO at a concentration of 10 μM in a differentiation medium for 24 hours. The cells were crosslinked in 1.42% (v/v) formaldehyde for 15 minutes, and the reaction was quenched by treating with 125 mM glycine for 5 minutes. […] Shearing was analyzed by agarose gel electrophoresis. […] The immunoprecipitated DNA fragments were isolated using Chelex-100 resin and diluted by 1:2.5 for quantitative PCR analysis. Input normalized relative abundance was determined.

Balb/c ByJ mice = test: Suppression of dexamethasone-induced muscle atrophy; assay type: in vivo, mouse
Method: (1) A 25 mg/mL dexamethasone stock solution in DMSO was prepared. Three Balb/c ByJ mice (6 week, female) were intraperitoneally injected with 20 μL of the dexamethasone stock solution, each day for a week. As a control group, three other individuals were injected with 20 μL of DMSO. On day 9, 11 and 13, each group of the mice was injected with a solution prepared by dissolving 0.3 μL of 10 mM IBS008738 stock solution in 100 μL PBS, on one hindlimb muscle, and with 100 μL PBS on the other hindlimb muscle. The mice were sacrificed at day 14, and the muscle tissues were fixed and stained with hematoxylin and eosin (see FIG. 8D). It was observed that the muscle fibers of the mice administered with dexamethasone were shrinked.
(2) The cross section of the muscle fibers of the individual intraperitoneally injected with dexamethasone was stained with an anti-laminin antibody and observed. […] The cross-section area of muscle fibers (500 per individual) of the three mice was measured. As a result, the area of the individual injected with IBS008738 was greater than the area of the individual injected with DMSO (see FIG. 9F). The cross-section area of muscle fibers was analyzed with Image J software.

A431 cells = test: Immunoblotting of EMT markers in A431 cells; assay type: cell-based
Method: (1) A431 cells, (epidermoid carcinoma), A549 cells (adenocarcinomic human alveolar basal epithelial cell) and HCT116 cells (human colon cancer) were treated with IBS008738 or DMSO, respectively, and evaluated by immunoblotting.
HEK293, A431, A549, HCT116, MCF7 and SW480 cells were cultured in Dulbecco's Modified Eagle Medium (DMEM) containing 10% fetal bovine serum (FBS), 10 mM HEPES-NaOH at pH 7.4, 100 U/ml penicillin and 100 mg/I streptomycin under 5% CO2 at 37° C.

C2C12 cells = test: Evaluation of myogenesis of C2C12 cells by fusion index; assay type: cell-based, mouse; conditions: differentiation condition 72 hours, DMSO as 1, average of three
Method: (1) C2C12 cells were grown to confluence under growth condition, and then in differentiation condition for 72 hours, in a culture medium added with DMSO, IBS008738 (exemplary compound 1) or exemplary compounds 2 to 44, at a concentration of 1 μM, 3 μM or 10 μM, respectively. Thereafter, the degree of myogenesis was evaluated by a fusion index (a value obtained by dividing the number of nuclei detected in multinucleated myosin heavy chain (MHC)-positive cells by the total number of the nuclei). Specifically, exemplary compounds were divided into five groups, and DMSO and IBS008738 were evaluated in each group as controls. The evaluation was conducted three times, and the average value and the standard deviation of the fusion index was relativized with the measured value of DMSO as 1.
C2C12 cells were passaged in a growth medium (DMEM containing 10% FBS) and differentiated in a differentiation medium (DMEM containing 2% horse serum (Invitrogen)).

Q: What does the source list for `Cc1ccc(-n2cnc(/N=C/N3CCOCC3)c2C(=O)c2ccccc2)cc1` [exemplary compound 1]?
A: gene transcription of CTGF compared with DMSO ([1]; 24 h and 72 h): no significant difference; Normarized mRNA abundance, CTGF ([1]; differentiation condition 24 h): 0.32 and 0.30 and 0.25; Normarized mRNA abundance, CTGF ([1]; differentiation condition 72 h): 1.76 and 2.01 and 2.04; Input %, Myf5-p, Mock ChIP [2]: 0.14% and 0.13% and 0.16%; cross-section area of muscle fibers compared with DMSO (Balb/c ByJ mice; dexamethasone mice, 500 fibers per individual, three mice): greater; shrinkage of muscle fibers compared with DMSO (Balb/c ByJ mice; dexamethasone mice, cross section stained with anti-laminin antibody): more suppressed; effect on muscle fibers (Balb/c ByJ mice; mice intraperitoneally injected with DMSO (no dexamethasone), IBS008738 into hindlimb muscle on day 9, 11 and 13, hematoxylin and eosin): No significant effect; shrinkage of muscle fibers (Balb/c ByJ mice; mice intraperitoneally injected with dexamethasone, IBS008738 into hindlimb muscle on day 9, 11 and 13, hematoxylin and eosin, day 14): partly suppressed; EMT markers (fibronectin, E-cadherin, N-cadherin and vimentin) compared with DMSO (A431 cells): no significant difference; relative fusion index (FI) (C2C12 cells; Group 1, 1 μM): 1.47; relative fusion index (FI) (C2C12 cells; Group 1, 3 μM): 1.89; relative fusion index (FI) (C2C12 cells; Group 1, 10 μM): 2.00; relative fusion index (FI) (C2C12 cells; Group 2, 1 μM): 1.33; relative fusion index (FI) (C2C12 cells; Group 2, 3 μM): 1.80; relative fusion index (FI) (C2C12 cells; Group 2, 10 μM): 2.03; relative fusion index (FI) (C2C12 cells; Group 3, 1 μM): 1.28; relative fusion index (FI) (C2C12 cells; Group 3, 3 μM): 1.67; relative fusion index (FI) (C2C12 cells; Group 3, 10 μM): 1.76; relative fusion index (FI) (C2C12 cells; Group 4, 1 μM): 1.13; relative fusion index (FI) (C2C12 cells; Group 4, 3 μM): 1.53; relative fusion index (FI) (C2C12 cells; Group 4, 10 μM): 1.68; relative fusion index (FI) (C2C12 cells; Group 5, 1 μM): 1.10; relative fusion index (FI) (C2C12 cells; Group 5, 3 μM): 1.18; relative fusion index (FI) (C2C12 cells; Group 5, 10 μM): 1.33

Source: patent US10653672B2, “Myogenesis promotor, muscle atrophy inhibitor, medical composition and TAZ activator” (National University Corporation Tokyo Medical and Dental …, priority 2014, dated 2020)
